Measured values reported in BigSolDB 2.1.

O=C(O)CCCC[C@@H]1SC[C@@H]2NC(=O)N[C@@H]21
Details	solubility (mole fraction)
in DMF, 298.65 K	0.00356
in DMF, 303.25 K	0.00413
in DMF, 308.15 K	0.00497
in DMF, 313.15 K	0.00603
in DMF, 318.15 K	0.0075
in DMF, 323.25 K	0.00902
in DMF, 328.15 K	0.0107
in DMF, 333.15 K	0.0128
in DMSO, 298.15 K	0.0378
in DMSO, 303.15 K	0.0425
in DMSO, 308.15 K	0.0479
in DMSO, 313.15 K	0.053
in DMSO, 318.05 K	0.0582
in DMSO, 322.75 K	0.0633
in DMSO, 327.65 K	0.0687
in DMSO, 332.85 K	0.0748
in acetic acid, 298.15 K	0.00226
in acetic acid, 303.15 K	0.00283
in acetic acid, 308.15 K	0.0035
in acetic acid, 313.25 K	0.00424
in acetic acid, 317.95 K	0.00509
in acetic acid, 323.45 K	0.00646
in acetic acid, 327.85 K	0.00766
in acetic acid, 333.25 K	0.00922
in ethanol, 298.15 K	6.35e-05
in ethanol, 302.95 K	8.69e-05
in ethanol, 308.85 K	0.000133
in ethanol, 313.95 K	0.000176
in ethanol, 318.45 K	0.00023
in ethanol, 323.55 K	0.000309
in ethanol, 329.35 K	0.000442
in ethanol, 333.85 K	0.000582
in methanol, 298.15 K	6.92e-05
in methanol, 302.75 K	9.37e-05
in methanol, 308.05 K	0.000143
in methanol, 313.25 K	0.000208
in methanol, 317.85 K	0.000298
in methanol, 323.55 K	0.00046
in methanol, 327.65 K	0.000601
in methanol, 332.95 K	0.000862
in water, 298.15 K	4.97e-06
in water, 303.15 K	8.18e-06
in water, 308.05 K	1.28e-05
in water, 312.75 K	2.06e-05
in water, 318.55 K	3.52e-05
in water, 323.15 K	5.42e-05
in water, 328.95 K	9.12e-05
in water, 332.95 K	0.000129
